The source of these data is PubChem BioAssay (NCI).

Holding throughout (assay): NCI anticancer screen, dose series, 48 h
Experiment [1] concerns CAKI-1 renal.
Experiment [2] relates to UACC-62 melanoma.
For experiment [3], the system named is SW-620 colon.
For experiment [4], the system named is TK-10 renal.
The subject of experiment [5] is SF-539 CNS.
Experiment [6] concerns NCI-H23 lung.
Experiment [7] has as its system SK-MEL-5 melanoma.
The subject of experiment [8] is UO-31 renal.
The subject of experiment [9] is OVCAR-3 ovarian.
Experiment [10] has as its system HCT-116 colon.

Each structure is given as a SMILES string. Several values for one entry are separate records, joined by “and”; a condition that tells them apart may be missing. Equal entries are not always repeated.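 Tested at 5 concentrations; 48 h exposure; 96-well plates; endpoints linearly interpolated, else capped at highest concentration. GI50 marks 50% less growth. TGI: total growth inhibition.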

With `CCCCCN(CCCCC)CC(O)c1cc2c(c3ccccc13)CCCC2` (stereo not given), the GI50 in experiment [1] was 3.44 µM and 4.29 µM; in [2], 3.31 µM and 11.2 µM; in experiment [3], 5.99 µM; in experiment [4] it was 10.6 µM and 18.2 µM; in experiment [5], 4.88 µM and 10.9 µM; in experiment [6], 3.72 µM and 5.94 µM. The GI50 in experiment [7] was 2.08 µM and 3.98 µM; in experiment [8], 3.79 µM and 6.15 µM; in experiment [9], 6.22 µM and 10.5 µM; in [10], 2.7 µM and 2.24 µM. Besides, the TGI was 10.9 µM and 20.2 µM in [1]; 12.9 µM and 29.2 µM in experiment [2]; 19.4 µM in experiment [3]; 22.9 µM and 37.9 µM in experiment [4]; 16.9 µM and 23.6 µM in experiment [5]; 14.7 µM and 24.6 µM in experiment [6]. Further, the TGI was 5.01 µM and 14.1 µM in experiment [7]; 15.6 µM and 22.1 µM in experiment [8]; 18.7 µM and 24.1 µM in experiment [9]; 12.8 µM and 13.1 µM in experiment [10].

With `N#Cc1nc2cc(F)c(F)cc2nc1-c1ccc(Cl)cc1`, the GI50 in [1] was 15.1 µM; in [2] it was 0.645 µM; in [3], 16 µM; in [4], 22.4 µM; in [5], greater than 60.6 µM; in [6], 7.92 µM. In addition, the GI50 is 14.4 µM in [7], 12.2 µM in experiment [8], 2.24 µM in [9] and 10.7 µM in experiment [10]. Further, the TGI in experiment [1] is 38.5 µM; in experiment [2], 7.17 µM; in experiment [3], 50.1 µM; in experiment [4], 67.3 µM; in experiment [5], greater than 100 µM; in [6], 33.9 µM. Further, the TGI in [7] is 40.6 µM; in experiment [8], 38.1 µM; in experiment [9], 8.28 µM; in [10], 29.2 µM.

For `COc1cc(-c2oc3c(OC)c(O)c(OC)c(O)c3c(=O)c2OC)ccc1O`, the TGI in experiment [1] was 90.1 µM; in experiment [2], greater than 100 µM; in [3] it was greater than 100 µM; in experiment [4], 98.9 µM; in [5], greater than 100 µM; in experiment [6], greater than 100 µM. In addition, the TGI was greater than 100 µM in [7], 85.2 µM in experiment [8], 67.8 µM in [9] and greater than 100 µM in experiment [10].

Turning to `Oc1c(N=Nc2ccccc2)c2ccccc2c2ccc3ccccc3c12`, the TGI in experiment [1] was greater than 100 µM; in experiment [2], greater than 100 µM; in experiment [3], greater than 100 µM; in [4], greater than 100 µM; in experiment [5], 85.2 µM; in experiment [6] it was greater than 100 µM. The TGI in experiment [7], in experiment [8], in [9] and in [10] was greater than 100 µM each time.

For `O=P1(O)c2ccccc2Nc2cc(C(F)(F)F)ccc21`, the TGI in experiment [1], in experiment [2], in [3], in experiment [4], in experiment [5] and in experiment [6] was greater than 100 µM each time. For the same compound, the TGI in experiment [7], in [8], in [9] and in [10] was greater than 100 µM throughout.

As to `O=Cc1ccc(O)c2ncccc12`, the GI50 is 7.29 µM in [1]; 3.58 µM in experiment [2]; 3.91 µM in [3]; 17.4 µM in experiment [4]; 3.33 µM in [5]; 3.42 µM in [6]. The GI50 in experiment [7] was 2.4 µM; in [8], 4.96 µM; in [9], 1.4 µM; in experiment [10], 2.54 µM. The TGI in experiment [1] is 35.4 µM; in [2], 27.6 µM; in experiment [3], 16.6 µM; in [4] it was 52.5 µM; in experiment [5], 19.3 µM; in experiment [6], greater than 55.8 µM. The TGI is 9.45 µM in [7], 36.9 µM in experiment [8], 6.85 µM in experiment [9] and 11.7 µM in experiment [10].

As for `C/C=C/C=C\C1OC(O)([C@H](CC)C(=O)NC/C=C/C=C(\C)[C@H](OC)C(C)C2OC(\C=C/C=C/C=C(\C)C(=O)c3c(O)ccn(C)c3=O)[C@H](O)[C@@H]2O)C(O)C(O)C1(C)C` (stereo not given in full), the TGI in [1], in experiment [2], in experiment [3], in [4], in experiment [5] and in [6] was greater than 100 µM throughout. Moreover, the TGI in experiment [7], in experiment [8], in experiment [9] and in experiment [10] was greater than 100 µM each time.

With `COC(=O)C(CC(=O)Nc1ccc(Cl)c(Cl)c1)C(=O)C(=O)NC1C2CC3CC(C2)CC1C3` (stereo not given), the TGI in experiment [1], in experiment [2], in experiment [3], in experiment [4], in [5] and in experiment [6] was greater than 100 µM throughout. Moreover, the TGI in experiment [7], in [8], in experiment [9] and in experiment [10] was greater than 100 µM throughout.

`N#CC(C#N)=C1SCC(=O)CS1`: the TGI in [1], in [2], in [3], in experiment [4], in experiment [5] and in [6] was greater than 100 µM in each case. Besides, the TGI in [7], in experiment [8], in [9] and in experiment [10] was greater than 100 µM throughout.

With `CCOC1C=CCCO1` (stereo not given), the TGI in [1], in experiment [2], in experiment [3], in [4], in experiment [5] and in experiment [6] was greater than 100 µM in each case. Moreover, the TGI is greater than 100 µM in [7], 38.8 µM in experiment [8], greater than 100 µM in experiment [9] and greater than 100 µM in experiment [10].

Take `NC(CCSC(F)F)C(=O)O` (stereo not given): the TGI in experiment [1], in [2], in experiment [3], in experiment [4], in [5] and in experiment [6] was greater than 100 µM in each case. Also, the TGI in experiment [7], in experiment [8], in experiment [9] and in experiment [10] was greater than 100 µM throughout.

For `Cc1nn(-c2nc3ccccc3[nH]2)c2c1C(c1ccc3c(c1)OCO3)CC(=O)N2` (stereo not given), the GI50 in experiment [1] was 2.55 µM; in experiment [2], 1.66 µM; in experiment [3], 2.86 µM; in [4] it was 3.14 µM; in experiment [5], 2.16 µM; in [6], 2.13 µM. The GI50 in [7] is 1.88 µM; in experiment [8], 2.73 µM; in [9] it was 2.38 µM; in [10], 2.24 µM. In addition, the TGI in experiment [1] was 7.04 µM; in experiment [2], 3.13 µM; in [3] it was 9.63 µM; in [4], greater than 25.8 µM; in [5], 4.82 µM; in [6], 4.72 µM. Moreover, the TGI in [7] amounted to 3.76 µM; in experiment [8] it was 8.14 µM; in experiment [9], 5.17 µM; in [10], 4.73 µM.

Take `COc1cc(/C=C/C(=O)c2c(C)n([O-])c3ccc(Cl)cc3[n+]2=O)cc(OC)c1OC`: the GI50 in [1] was greater than 100 µM; in [2] it was greater than 100 µM; in experiment [3] it was greater than 100 µM; in experiment [4], 26.5 µM; in experiment [5], 25.4 µM; in experiment [6], 50.5 µM. In addition, the GI50 in [7] was 68 µM; in experiment [8], 1.55 µM; in experiment [9], greater than 100 µM; in experiment [10], 76 µM. Also, the TGI in experiment [1] was greater than 100 µM; in experiment [2], greater than 100 µM; in [3], greater than 100 µM; in experiment [4], 97.7 µM; in [5], 52.6 µM; in [6], greater than 100 µM. The TGI in experiment [7] is greater than 100 µM; in experiment [8] it was 5.47 µM; in experiment [9] it was greater than 100 µM; in experiment [10], greater than 100 µM.

On to `Clc1ccc2c(c1)-c1ccccc1C1=NCCN12`, for which the GI50 is 1.83 µM in experiment [1]; 1.6 µM in experiment [2]; 1.11 µM in experiment [3]; 1.87 µM in [4]; 3 µM in experiment [5]; 1.85 µM in experiment [6]. Moreover, the GI50 was 1.56 µM in experiment [7], 1.28 µM in [8], 2.3 µM in experiment [9] and 0.719 µM in experiment [10]. Further, the TGI in [1] came to 5.8 µM; in experiment [2], 3.48 µM; in [3], 6.53 µM; in experiment [4], 5.51 µM; in experiment [5], 10.4 µM; in [6], 4.75 µM. Further, the TGI in experiment [7] came out at 2.94 µM; in experiment [8], 2.8 µM; in experiment [9] it was 6.16 µM; in [10] it was 6.86 µM.

On to `O=C(/C=C1/NC(=O)CS1)Nc1ccccc1`, for which the TGI in experiment [1], in experiment [2], in [3], in experiment [4], in experiment [5] and in experiment [6] was greater than 100 µM in each case. The TGI in [7], in experiment [8], in experiment [9] and in experiment [10] was greater than 100 µM throughout.

For `O=C1C[C@@H]2CCCC[C@@H]2C12SCCS2`, the TGI in experiment [1], in experiment [2], in [3], in [4], in experiment [5] and in experiment [6] was greater than 100 µM each time. Besides, the TGI in experiment [7], in experiment [8], in experiment [9] and in experiment [10] was greater than 100 µM each time.

For `COc1cc2cccc(NC(=O)c3cc(OC)c(OC)c(OC)c3Br)c2cc1OC`, the TGI in experiment [1] turned out to be 64.6 µM; in experiment [2], 26.1 µM; in experiment [3], 71 µM; in [4], 92.6 µM; in experiment [5] it was 46.8 µM; in experiment [6], 34.4 µM. Besides, the TGI in experiment [7] came out at 10.6 µM; in experiment [8], 24.2 µM; in [9], 47.5 µM; in experiment [10], 36.6 µM.

For the compound `Cc1ccc(N2C(=O)/C(=C/c3ccc(N(CCC#N)CCC#N)cc3C)N=C2c2cc([N+](=O)[O-])ccc2Cl)cc1`, the TGI in [1], in experiment [2], in experiment [3], in experiment [4], in experiment [5] and in experiment [6] was greater than 100 µM throughout. Also, the TGI in experiment [7], in experiment [8], in experiment [9] and in [10] was greater than 100 µM each time.

Regarding `C[C@@H]1C[C@@]2(O[C@@H]2C)C(=O)O[C@@H]2CCN3CC=C(COC(=O)[C@]1(C)O)[C@H]23`, the TGI in [1], in experiment [2], in experiment [3], in experiment [4], in experiment [5] and in experiment [6] was greater than 100 µM in each case. The TGI in [7], in experiment [8], in experiment [9] and in experiment [10] was greater than 100 µM in each case.

In the case of `O=C(CCCCCCC(=O)Nc1ccc2c(c1)/C(=C/c1ccc[nH]1)C(=O)N2)NO`, the GI50 in [1] is 2.33 µM; in [2], 0.287 µM; in experiment [3] it was 0.271 µM; in experiment [4], 0.795 µM; in experiment [5], 0.603 µM; in experiment [6], 1.88 µM. For the same compound, the GI50 in experiment [7] is 0.24 µM; in [8] it was 0.963 µM; in [9] it was 0.354 µM; in experiment [10], 0.23 µM. In addition, the TGI in experiment [1] is greater than 100 µM; in experiment [2], 1.39 µM; in experiment [3], greater than 21.9 µM; in experiment [4], 7.78 µM; in experiment [5], 16 µM; in experiment [6], 14.8 µM. The TGI was 1.41 µM in [7], greater than 100 µM in [8], 5.51 µM in experiment [9] and 2.87 µM in [10].

As for `O=C1C[C@H]2CC3(CC[C@H]2CN1)OCCO3`, the TGI in [1], in [2], in experiment [3], in experiment [4], in experiment [5] and in experiment [6] was greater than 100 µM throughout. Also, the TGI in [7], in [8], in experiment [9] and in experiment [10] was greater than 100 µM each time.
